# Reference: patent publication US20260130901A1, “CGRP RECEPTOR ANTAGONIST FOR THE TREATMENT OF MIGRAINE” (ALLERGAN PHARMACEUTICALS INTERNATIONAL LIMITED, priority 2022, published 2026)
# Tested on: participants with migraine (qualifying prodrome events)
# Test: Phase 3 crossover study: ability to function normally (Functional Disability Scale)
# Assay type: in vivo, human
# Conditions: 100 mg in prodrome, mITT
# Protocol: A phase 3, multicenter, randomized, double-blind, placebo-controlled, crossover study was carried out to evaluate the efficacy, safety, and tolerability of oral ubrogepant in the acute treatment of migraine when administered during the prodrome. The study evaluated whether treatment during the initial phase of a migraine attack (i.e., the prodrome or premonitory phase) prior to the onset of headache, can attenuate the severity of the headache phase and reduce disability.
# Eligible participants were randomized (1:1) to treatment sequences A or B in this crossover study. Participants randomized to Treatment Sequence A received placebo to treat their first qualifying prodrome event and ubrogepant 100 mg to treat their second qualifying prodrome event. For those randomized to Treatment Sequence B, they received the reverse: ubrogepant 100 mg to treat their first qualifying prodrome event and placebo to treat their second qualifying prodrome event.
# The primary efficacy endpoint was the absence of a headache of moderate/severe intensity within 24 hours after taking double-blind study intervention during the prodrome. The secondary efficacy endpoints were the absence of a headache of moderate or severe intensity within 48 hours, ability to function normally over 24 hours, and absence of a headache of any intensity within 24 hours after taking double blind study interventions during the prodrome.
# A responder for ability to function normally is a participant having a score of 0 (no disability, able to function normally) on the Functional Disability Scale (FDS), and a non-responder is one having a score of 1 (Mildly impaired, can still do everything but with difficulty) to 3 (Severely impaired, cannot do all or most things, bed rest may be necessary).
compound,measurement,setting,value
"C[C@@H]1[C@H](c2ccccc2)C[C@H](NC(=O)c2cnc3c(c2)C[C@@]2(C3)C(=O)Nc3ncccc32)C(=O)N1CC(F)(F)F [Ubrogepant, (3′S)—N-((3S,5S,6R)-6-methyl-2-oxo-5-phenyl-1-(2,2,2-trifluoroethyl)piperidin-3-yl)-2′-oxo-1′,2′,5,7-tetrahydrospiro[cyclopenta[b]pyridine-6,3′-pyrrolo[2,3-b]pyridine]-3-carboxamide]","Ability to function normally, Nonresponder (%)",1 hour post dose,(74.4) %
same,"Ability to function normally, Odds Ratio vs. Placebo",1 hour post dose,1.29
same,"Ability to function normally, Responder (%)",1 hour post dose,(25.6) %
same,"Ability to function normally, Nonresponder (%)",2 hours post dose,(63.0) %
same,"Ability to function normally, Odds Ratio vs. Placebo",2 hours post dose,1.73
same,"Ability to function normally, Responder (%)",2 hours post dose,(37.0) %
same,"Ability to function normally, Responder (%)","2 hours post dose, listed as ubrogepant",37.0%
same,"Ability to function normally, Nonresponder (%)",3 hours post dose,(51.7) %
same,"Ability to function normally, Odds Ratio vs. Placebo",3 hours post dose,1.71
same,"Ability to function normally, Responder (%)",3 hours post dose,(48.3) %
same,"Ability to function normally, Nonresponder (%)",4 hours post dose,(41.0) %
same,"Ability to function normally, Odds Ratio vs. Placebo",4 hours post dose,1.97
same,"Ability to function normally, Responder (%)",4 hours post dose,(59.0) %
same,"Ability to function normally, Nonresponder (%)",6 hours post dose,(32.7) %
same,"Ability to function normally, Odds Ratio vs. Placebo",6 hours post dose,1.78
same,"Ability to function normally, Responder (%)",6 hours post dose,(67.3) %
same,"Ability to function normally, Nonresponder (%)",8 hours post dose,(25.0) %
same,"Ability to function normally, Odds Ratio vs. Placebo",8 hours post dose,1.84
same,"Ability to function normally, Responder (%)",8 hours post dose,(75.0) %
same,"Ability to function normally, Nonresponder (%)",24 hours post dose,(11.1) %
same,"Ability to function normally, Odds Ratio vs. Placebo",24 hours post dose,1.41
same,"Ability to function normally, Responder (%)",24 hours post dose,(88.9) %
same,"Ability to function normally over 24 hours, Geometric Mean Odds Ratio vs. Placebo","overall, all timepoints through 24 hours",1.66
